This test has as its system HGADFN167 Lmna^G608G/G608G fibroblasts. The test can be described thus: Immunoblot and immunocytofluorescence analysis in human progeroid cells (Ki‐67, nuclei, pH2AX, H3K9Me3). Format: cell-based. The settings on record: HGADFN167, 5 µM, 20 days. From the text:
FIGURE 6 (A) Representative cropped immunoblots and progerin quantification in human Lmna^G608G/G608G fibroblasts. MW, molecular weight (in kDa) markers. […] (B) PROTAC 2 increases cell proliferation (upper panels) and decreases the number of misshapen nuclei (lower panels). White arrows highlight selected misshapen nuclei. (C) PROTAC 2 decreases senescence‐associated β‐galactosidase (SA‐βgal) activity, interleukin (IL) 6, p16 and p21 senescent markers. Bar graphs show mean±sem of 2 (SA‐βgal and p21) or 3 (IL‐6 and p16) independent experiments performed in triplicate. (D) PROTAC 2 decreases phosphorylated histone 2AX (pH2AX) and increases trimethylated histone 3 (H3K9Me3) levels. (E) PROTAC 2 increases the oxygen consumption rate (OCR), ATP production and the number of healthy mitochondria in human progeroid cells. Bar graphs show mean±sem of 2 independent experiments performed in duplicate. In all cases, HGADFN167 Lmna^G608G/G608G (G608G) or HGFDFN168 Lmna^+/+ (WT) fibroblasts, provided by the Progeria Research Foundation, were incubated with vehicle or 2 (5 µM) for 20 days. Data were analysed using one‐way ANOVA followed by Dunnett's post–hoc test vs vehicle (panel A) or vs G608G cells (panels B‐E). ^*, p < 0.05; ^**, p < 0.01; ^***, p < 0.001; ^****, p < 0.0001. Microscopy images are representative of 2 independent experiments and corresponding bar graphs show mean±sem of 4 fields from 2 independent experiments. […]
compound exposure. Then, cells were incubated with compound of interest or DMSO for the appropriate time and lysed with cold laemmli buffer (50 mM Tris-HCl pH 7.4, 150 mM NaCl, 1% Igepal) with a mixture of protease and phosphatase inhibitors (1 mM PMSF, 10 mM NaF, 0.3 mg/mL CalyculinA, 1 mM sodium orthovanadate, 10 mM β-glycerol-phosphate; all from Sigma-Aldrich and complete protease inhibitor cocktail, from Roche). Proteins were denatured at 95 ᵒC for 5 min and the lysates were immediately used or stored at -20 ᵒC until use. Samples were analysed by electrophoresis in polyacrylamide gels (All Kd SDS-PAGE, BioRad) and the proteins transferred to nitrocellulose membranes (GE Healthcare, Amersham). After 1 h of incubation in blocking buffer [20 mM Tris pH 7.6, 150 mM NaCl and 0.1% Tween-20 (TBS-T) with 5% of bovine serum albumin (BSA)], blots were incubated overnight at 4 ᵒC with the corresponding primary antibody: anti-phospho-histone 2AX (Ser139) (EMD Millipore, […]
GAPDH (Cell Signaling, 2118S, 1:5000) and anti-actin (Santa Cruz Biotechnology, sc-376248, 1:500) as antibodies for loading control. Then, membranes were washed (3x10 min) with TBS-T and incubated with the corresponding secondary antibody conjugated with peroxidase (Sigma- Aldrich) for 1 h at rt. […] The bands were quantified by densitometry using the […]
In general terms: A western blot detects proteins with antibodies after separation by electrophoresis.

For `CC1(C)Oc2cc3oc(=O)ccc3cc2C[C@@H]1OC(=O)CCCCCNc1cccc2c1C(=O)N(C1CCC(=O)NC1=O)C2=O` (stereo partly shown) [compound 2], the H3K9Me3 levels result is listed as “significantly increased H3K9Me3 levels”, the “cell proliferation (Ki‐67 expression)” value was “enhances cell proliferation”, the “number of misshapen nuclei” value is “significantly reduced the number of misshapen nuclei” and the pH2AX levels result is recorded as “reduced pH2AX levels to those observed in WT cells”.

These data come from article PMC13252604, “First Generation Proteolysis Targeting Chimeras (PROTACs) for the Treatment of Progeria” (Advanced Science, 2026).
